In the supplement of paper PMC13380429:

Tests used:
Caco-2 [1] = assay: cell viability relative to DMSO; higher = less toxic; conditions: 72 h
HepG2 [2] = assay: as above; conditions: 72 h
Vero E6 [3] = assay: as above; conditions: 72 h
U2OS [4] = assay: as above; conditions: 72 h
[5] = system: A549-ACE2 infected with SARS-CoV-2; assay: cell count relative to DMSO; higher = less toxic; conditions: 24 h
Caco-2 [6] = assay: relative viability EC50 (midpoint between 100% and the lowest measured viability); higher = less toxic; conditions: 72 h
HepG2 [7] = assay: as above; conditions: 72 h
Vero E6 [8] = assay: as above; conditions: 72 h
U2OS [9] = assay: as above; conditions: 72 h
[10] = system: A549-ACE2 infected with SARS-CoV-2; assay: morphology score (similarity to uninfected cells); higher = more like uninfected cells; conditions: 24 h
A549-ACE2 = assay: drug-induced phospholipidosis relative to tamoxifen; higher = more phospholipidosis
[11] = system: A549-ACE2 infected with SARS-CoV-2; assay: SARS-CoV-2 infection rate relative to DMSO; higher = more infection; conditions: 24 h
Caco-2 [12] = assay: drug sensitivity score (DSS) for viability; higher = more toxic; extreme values may be limits of the assay; conditions: 72 h
HepG2 [13] = assay: as above; conditions: 72 h
Vero E6 [14] = assay: as above; conditions: 72 h
U2OS [15] = assay: as above; conditions: 72 h
Calu-3 [16] = assay: cell viability relative to DMSO; higher = less toxic; conditions: 72 h
Calu-3 [17] = assay: relative viability EC50 (midpoint between 100% and the lowest measured viability); higher = less toxic; conditions: 72 h
Calu-3 [18] = assay: drug sensitivity score (DSS) for viability; higher = more toxic; extreme values may be limits of the assay; conditions: 72 h

Cc1[nH]cnc1-c1ccc(Cl)cc1 [lofemizole]
Conditions	SARS-CoV-2 infection rate, [11] [%]	cell count, [5] [%]	cell viability, Caco-2 [1] [%]	cell viability, HepG2 [2] [%]	cell viability, U2OS [4] [%]	cell viability, Vero E6 [3] [%]	morphology score, [10]
1 nM	–	–	98.4	99.4	95.9	103	–
10 nM	–	–	94.9	102	97.2	97	–
100 nM	–	–	95.2	105	97.5	96.5	–
0.3 µM	94	97	–	–	–	–	0.05
1000 nM	–	–	98.7	93	99.2	96.7	–
3 µM	104	102	–	–	–	–	0.07
10000 nM	–	–	101	107	103	102	–
10 µM	105	100	–	–	–	–	-0.16
30 µM	100	94	–	–	–	–	-0.13

Conditions	drug sensitivity score	relative viability EC50 [µM]
Caco-2 [6]	–	> 10
Caco-2 [12]	0	–
HepG2 [7]	–	> 10
HepG2 [13]	0	–
U2OS [9]	–	> 10
U2OS [15]	0	–
Vero E6 [8]	–	> 10
Vero E6 [14]	0	–

drug-induced phospholipidosis [%], A549-ACE2
Conditions	0.3 µM	0.833333 µM	3.33333 µM	6.66667 µM	10 µM	30 µM
24 h	3.89	-1.13	0.51	-0.91	0.71	5.39
48 h	4.07	0.92	2.92	3.98	3.67	11.9
72 h	4.05	0.285	0.756	2.05	2.84	12.6

C#C[C@]1(O)CC[C@H]2[C@@H]3CCc4cc(OC5CCCC5)ccc4[C@H]3CC[C@@]21C [quinestrol]
Conditions	SARS-CoV-2 infection rate, [11] [%]	cell count, [5] [%]	cell viability, Caco-2 [1] [%]	cell viability, Calu-3 [16] [%]	cell viability, HepG2 [2] [%]	cell viability, U2OS [4] [%]	cell viability, Vero E6 [3] [%]	morphology score, [10]
1 nM	–	–	99.4	97.9	92.1	102	98.4	–
10 nM	–	–	92.1	98.6	93.2	98.9	104	–
100 nM	–	–	98.7	99.8	88.9	104	100	–
0.3 µM	103	105	–	–	–	–	–	-0.03
1000 nM	–	–	96.5	91.1	95.5	100	104	–
3 µM	85	110	–	–	–	–	–	0.43
10000 nM	–	–	67.8	41	76.6	93.8	87.4	–
10 µM	41	85	–	–	–	–	–	0.68
30 µM	42	23	–	–	–	–	–	0.01

Conditions	drug sensitivity score	relative viability EC50 [µM]
Caco-2 [12]	2	–
Calu-3 [17]	–	1.98
Calu-3 [18]	4.7	–
HepG2 [7]	–	> 10
HepG2 [13]	1.3	–
U2OS [9]	–	> 10
U2OS [15]	0	–
Vero E6 [8]	–	> 10
Vero E6 [14]	0	–

drug-induced phospholipidosis [%], A549-ACE2
Conditions	0.3 µM	0.833333 µM	3.33333 µM	6.66667 µM	10 µM	30 µM
24 h	11.1	13.7	17.2	16.9	13.9	23.3
48 h	12.2	17.8	21.2	25.8	23.6	37.6
72 h	8.56	16.2	19.1	27.3	29.2	–
